Data on five compounds can be found in PMC2841397 (Xenobiotica; the fate of foreign compounds in biological …, 2010).

As a reminder, the Cmax is the maximum level reached in the sampled fluid or tissue. One may read the Tmax as the time from dosing to the highest level. What is called clearance is a measure of how efficiently the substance is removed, as volume per time.

Values joined by “and” are separate entries in the source; they are usually repeats but may differ in a detail not shown here. Equal values may be shown once. Read-outs that look alike come from different tables or passages of the source.

One data set relates to cardiomyocytes. As to conditions: ref Beigi et al. 2006, Jóźwiak et al. 2007, cited from earlier work; for maximum contractile response: cardiomyocyte model, Woo et al. 2009.
A further data set concerns isolated rat hepatocytes. As to conditions: ref Koster et al. 1986, cited from earlier work.
For the next data set, the system named is isolated rat enterocytes. As to conditions: ref Koster et al. 1986, cited from earlier work.
A short description of data set [1]: Urinary excretion after intravenous administration to rats. The class given is in vivo, rat.
A short description of data set [2]: Urinary excretion after oral administration to rats. The class given is in vivo, rat.
For data set [3] the following is noted: Mean (CV%).
Data set [4] deals with β2-AR coupled GS signaling. As to conditions: ref Woo et al. 2009; cited from earlier work.
Assay in data set [5]: not given
The source holds these as a separate data set.

For data set [6] the following is noted: rat; ref Koster et al. 1985, 1986; Hildebrandt et al. 1994; cited from earlier work.
The conditions of data set [7]: racemic-Fen 2 mg kg^-1 intravenous, male Wistar rats; ref Koster et al. 1985; cited from earlier work.
[8] abbreviates: model parameter, iv 5 and oral 25 mg kg^-1.
[9] abbreviates: intravenous 5 mg kg^-1, n=5, mean.

Consider `CC(Cc1ccc(O)cc1)NCC(O)c1cc(O)cc(O)c1` [(S,S)-Fen], for which, in the data set with cardiomyocytes, the maximum contractile response result is “no observed effect”.
In the case of `C[C@H](Cc1ccc(O[C@@H]2O[C@H](C(=O)O)[C@@H](O)[C@H](O)[C@H]2O)cc1)NC[C@H](O)c1cc(O)cc(O)c1` [(R,R)-Fen-PG], the “observed fraction of (R,R)-Fen-PG formation” value in the data set on isolated rat hepatocytes (hepatocytes) was 0.28 ± 0.01; in the data set with isolated rat enterocytes (enterocytes) it was 0.52 ± 0.01.
Take `COc1ccc(CC(C)NCC(O)c2cc(O)cc(O)c2)cc1` [(R,R)-MFen, (R,R)-methoxyfenoterol]: the maximum contractile response entry in the data set with cardiomyocytes is “significant increase”.
For the compound `CC(Cc1ccc(O)cc1)NCC(O)c1cc(O)cc(O)c1` [(R,R)-Fen, (R,R)-Fenoterol], the Cmax reads like this: (oral 25 mg kg^-1) 6.9 ± 0.3 nM; (oral 25 mg kg^-1, mean) 2.1 ng/mL. Moreover, the Tmax (oral 25 mg kg^-1) was found to be 2 h and the Tmax in data set [5] (intravenous 5 mg kg^-1, n=5) is listed as 5.0 min. The AUC0-inf. (oral 25 mg kg^-1, mean) is 692 ng·min/mL and 691.7 ng·min/mL; the AUC0-inf. in data set [5] (setting [9]) amounted to 36200 ng·min/mL. Besides, the T1/2λz (oral 25 mg kg^-1, mean) was 2.808 h; the T1/2λz in data set [3] (calculated from model parameters, equations (7) and (8)) is 96.4 (12%) min; the T1/2λz in [5] (setting [9]) was determined as 1.815 h. Besides, where the note is “oral administration 25 mg kg^-1”, the “net exposure (AUC)” value turned out to be 2.3 nmol·min/mL. Besides, the “Dose (%) excreted into urine” value in data set [1] (after intravenous (R,R)-Fen 5 mg kg^-1, 0-6 h, individual animals) is 2.24% and 7.75%; in data set [1] (after intravenous (R,R)-Fen 5 mg kg^-1, 6-24 h), 1.70 ± 1.77%; in data set [1] (after intravenous (R,R)-MFen 5 mg kg^-1, 0-6 h), 1.43 ± 0.21%; in [1] (after intravenous (R,R)-MFen 5 mg kg^-1, 6-24 h), 0.17 ± 0.05%; in data set [2] (after oral (R,R)-Fen 25 mg kg^-1, 0-6 h, one animal) it was 0.17%; in data set [2] (after oral (R,R)-Fen 25 mg kg^-1, 6-24 h), 0.16 ± 0.12%. Moreover, the “Dose (%) excreted into urine” value is 0.05% and 0.04% in data set [2] (after oral (R,R)-MFen 25 mg kg^-1, 0-6 h, individual animals); 0.02 ± 0.01% in data set [2] (after oral (R,R)-MFen 25 mg kg^-1, 6-24 h). In addition, the “dose excreted in the cumulative 24-h urine collection” value is “about 7%” in data set [1] (after intravenous administration of (R,R)-Fen) and “less than 1%” in data set [2] (after oral administration of (R,R)-Fen). Moreover, the “administered dose excreted, 24-h cumulative urinary excretion” value in [1] (after intravenous administration of (R,R)-MFen) is on record as “about 2%”. In data set [2] (after oral administration of (R,R)-MFen), the “administered dose excreted, cumulative urine” value was “Trace amounts”. For the same compound, the “Clint, conversion to (R,R)-Fen-PG” value in the data set with isolated rat hepatocytes (isolated rat hepatocytes) is 0.00148 ± 0.00032 mL/min/kg; with isolated rat enterocytes (isolated rat enterocytes), 0.00079 ± 0.0002 mL/min/kg. For the same compound, the CL in data set [3] (calculated from model parameters, equation (5)) is 170 (8%) ml min^-1kg^-1. Further, the Vss in data set [3] (calculated from model parameters, equation (6)) is listed as 11.6 (15%) l kg^-1. Moreover, in [3] (model parameter), the Vc is listed as 3.94 (20%) l kg^-1. Further, in data set [3] (model parameter), the ka1 was 0.004 (39%) min^-1. Besides, in data set [3] (model parameter), the ka2 is given as 0.167 (79%) min^-1. For the same compound, the k10 in data set [3] (setting [8]) was 0.043 min^-1 and 0.043 (15%) min^-1. In data set [3] (setting [8]), the k12 is 0.023 (26%) min^-1. The k21 in data set [3] (setting [8]) was 0.012 (18%) min^-1. Further, in [3] (model parameter, systemic bioavailability), the F is 0.473 (25%). Moreover, the “β2-AR coupled GS signaling” value in data set [4] is “selectively activates”. The C0 in data set [5] (setting [9]) is 2237 ng/mL. Besides, the Cl in data set [5] (setting [9]) was 146 mL/min/kg and 145.7 mL/min/kg. Also, in data set [5] (setting [9]), the VSS is 8.2 L/kg. Besides, the “area under the curve (AUC)” value in data set [5] (intravenous administration) was found to be 119 nmol·min/mL. For the same compound, the maximum contractile response entry in the data set with cardiomyocytes is recorded as “significant increase”. Besides, the “EC50 in the cardiomyocyte model” value with cardiomyocytes is recorded as “reduced”.
Take `CC(Cc1ccc(O)cc1)NCC(O)c1cc(O)cc(O)c1` (stereo not drawn) [Fen, 5-[1-hydroxy-2-[[2-(4-hydroxyphenyl)-1-methylethyl]-amino]-ethyl]-1,3-benzenediol]: the “bioavailability after oral administration” value in [6] was “less than 1%”. Moreover, in data set [7], the Vss is 1.3 L/kg, the clearance was 72.8 mL/min/kg and the k10 was 0.197 min⁻¹.
